Columns and labels:
[1] = 19F NMR line width / signal intensity of the measuring fluorine atom; type: physicochemical; conditions: in comparison to prior art compound (compound of Example 2 with Y meaning hydrogen); for line width smaller by: signal of the measuring fluorine atom
From the text: In comparison to the structurally closest compounds of the prior art, the compounds according to the invention show clearly thinner signals for the measuring fluorine atom, so that an identically intensive signal is obtained with a smaller dosage.

[2] = compatibility in comparison to structurally closest previously-known compound; type: in vivo; conditions: than structurally closest previously-known compound (compound of Example 2 with Y meaning hydrogen)
From the text: (§1) An equally high (undesirable) histamine release is observed with the compound of Example 2 only with the 30-fold dosage of the above-mentioned previously-known comparison substance.

[3] = system: histamine release; experiment: histamine release in comparison to structurally closest previously-known compound; type: in vivo; conditions: multiple of the dosage of the previously-known comparison substance (compound of Example 2 with Y meaning hydrogen)
From the text: as §1

Row | SMILES | signal increase [1] [%] | line width smaller by [1] [%] | compatibility higher by [2] [%] | dosage giving equally high (undesirable) histamine release [3]
1 | O=C(Cc1cc(NS(=O)(=O)CC(F)(F)F)cc(CC(=O)NC(CO)C(O)CO)c1F)NC(CO)C(O)CO (centres unmarked) [Example 6] | ~50 | 25 | – | –
2 | O=C(O)CCS(=O)(=O)Nc1ccc(F)c(CC(=O)NC(CO)C(O)CO)c1C(F)(F)F (centres unmarked) [Example 2, 3-{N-[4-Fluoro-2-trifluoromethylphenyl-3-acetic acid-N-(1-hydroxy-2,3-dihydroxypropyl)-amide]-sulfamoyl}-propionic acid] | – | 12 | 50 | 30 -fold
